Source: patent US7592009B2, “Polypeptide ligands for targeting cartilage and methods of use thereof” (Ecole Polytechnique Federale de Lausanne (EPFL), priority 2006, dated 2009)
Where no end group is shown, it is not given here.

T1: MMP-2 (Homo sapiens, UniProt P08253)
T1 sequence (P08253 110-660): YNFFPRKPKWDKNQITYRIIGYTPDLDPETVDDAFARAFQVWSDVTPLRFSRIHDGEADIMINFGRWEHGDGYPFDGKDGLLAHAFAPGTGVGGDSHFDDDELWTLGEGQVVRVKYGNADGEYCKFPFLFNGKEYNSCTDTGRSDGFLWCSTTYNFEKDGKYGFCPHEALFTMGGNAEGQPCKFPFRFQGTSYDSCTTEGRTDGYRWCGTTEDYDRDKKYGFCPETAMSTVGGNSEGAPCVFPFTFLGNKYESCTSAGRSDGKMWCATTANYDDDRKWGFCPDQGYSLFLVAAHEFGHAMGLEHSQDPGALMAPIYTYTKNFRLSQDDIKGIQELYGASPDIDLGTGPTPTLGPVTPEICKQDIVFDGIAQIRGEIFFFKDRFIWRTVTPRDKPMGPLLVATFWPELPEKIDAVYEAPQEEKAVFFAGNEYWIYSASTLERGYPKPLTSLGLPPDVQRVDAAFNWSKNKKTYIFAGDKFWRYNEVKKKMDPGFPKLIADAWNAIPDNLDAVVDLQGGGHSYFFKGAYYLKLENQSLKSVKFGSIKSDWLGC


How the values were obtained:
articular cartilage = experiment: Competitive binding of free polypeptide or nanoparticles against phage clone C1-3 on articular cartilage; design: species or system bovine; conditions: for decrease of phage titers versus control without polypeptide: 10 μM polypeptide, FIG. 3
Protocol: Cartilage grafts were harvested with 8 and 4 mm biopsy cutters (two-sided surface 1 cm^2 and 0.25 cm^2). A slice with the intact articular surface was removed to expose the phages only to the cartilage matrix below the surface. Affinity selection was preformed in polystyrene 48-well plates, which were blocked for nonspecific adhesion with a blocking solution containing 1% BSA for 2 hours prior to screening. A total of 5 screening rounds was carried out. In the first round 10^13 and in subsequent rounds 10^12 phage virions per ml were exposed to the cartilage graft, washed with PBS/Tween 20 and eluted at low pH. While the first round was supposed to give a high yield at low stringency, subsequent rounds were carried out with increasing stringency to select stronger binders. Conditions were increased from 4 hours of binding at RT and washing with PBS/0.1% Tween to 30 minutes binding at 37° C. with 220 RPM, washing with PBS/1% Tween 20 and the cartilage surface decreased from 1 cm^2 to 0.25 cm^2 in round five. Eluted phage was amplified overnight in E. coli strain TG1 in 2×YT medium and purified by two times PEG/NaCl (2M, 25%) precipitation. In the first round of screening, negative screens against the intact articular surface as well as synovial fluid (50% diluted in PBS to lower viscosity) were carried out in order to eliminate phages binding to these targets. Quantitative titer counts were obtained by spot titering of 15 μl of phage/bacterial culture onto LB-agar/tetracyclin plates and are given in transducing units(TU)/ml. The polypeptide sequences of affinity selected phage specific to the articular cartilage matrix was determined by DNA sequencing (Microsynth AG, Balgach, Switzerland) using the sequencing primer 5′-CAT GTA CCG TAA CAC TGA G (SEQ ID NO:5). Binding specificity was determined by exposing selected phage clones (10^8 TU/ml) to articular cartilage (0.25 cm^2) with and without synovial fluid, to synovial membrane (3×4 mm, 0.24 cm^2) and to polystyrene after blocking. […] The phage clones were identified by DNA sequencing and the corresponding titer counts calculated. For comepetetive binding against free polypeptide or nanoparticles and to obtain a dose-response curve, 10^8 TU/ml of phage and its free polypeptide in different concentrations or nanoparticles were mixed, exposed to articular cartilage and titer counts determined. […]
Based on affinity selection and the binding assays reported herein, the 6-mer polypeptide insert WYRGRL (SEQ ID NO:1) of clone C1-3 as well as its scrambled mismatch YRLGRW (SEQ ID NO:6) were synthesized on solid resin using standard Fmoc chemistry. […] A dose-response curve was determined by serial dilutions of the polypeptide ranging from 50 nM to 10 μM and mixing them with 10^8 TU/ml of phage. […]

MMP-2 = target: T1, MMP-2; experiment: MMP-2 zymography; assay type: biochemical

Row | Molecule | decrease of phage titers versus control without polypeptide (articular cartilage) | IC50 (articular cartilage; polypeptide 50 nM to 10 μM mixed with 10^8 TU/ml phage C1-3, estimated from curve in FIG. 2, read-out: IC50, inhibition of cartilage binding of phage C1-3) | decrease of titer counts of recovered phage over the dose-response curve (articular cartilage; polypeptide increased from 50 nM to 10 μM, FIG. 2) | inhibition of MMP-2 activity (MMP-2; equimolar amount of trTIMP-3) | activity of the purified protein (MMP-2; inferred from MMP-2 zymography at equimolar amount)
1 | WYRGRLC [synthetic polypeptide: insert WYRGRL of clone C1-3 with a cysteine added to the C-terminus] | ~100 fold | ~200 nM | two orders of magnitude | – | –
2 | YRLGRWC (Ac-YRLGRWC) [scrambled mismatch polypeptide of WYRGRL with C-terminal cysteine, reference compound] | did not result in a significant decrease in phage titer | – | – | – | –
3 | trTIMP-3: fusion protein of N-TIMP-3 (Cys24 to Asn 143) containing WYRGRL at the C-terminus (protein) CTCSPSHPQDAFCNSDIVIRAKVVGKKLVKEGPFGTLVYTIKQMKMYRGFSKMPHVQYIHTEASESLCGLKLEVNKYQYLLTGRVYEGKMYTGLCNFVERWDHLTLSQRKGLNYRYHLGCGGGWYRGRL | – | – | – | completely inhibits | ~100%
